Tested on: Plasmodium falciparum
Test: Antimalarial activity against chloroquine-sensitive Plasmodium falciparum HB3 by pico-green dye based fluorescence assay
Format: functional, organism-based

## C/C1=C/C(=O)O[C@H](C(C)(C)C)CCC[C@H](O)CCC[C@H](O)CCC[C@H](O)CCC[C@@H](O)C[C@@H](O)C[C@H](O)CCC[C@@H](O)CCC[C@@H](O)C[C@@H](O)CCCCC1 [listing 1 of 2 here]
Plasmodium falciparum, HB3
  IC50: 2.6 µM

## C/C1=C/C(=O)O[C@H](C(C)(C)C)CCC[C@H](O)CCC[C@H](O)CCC[C@H](O)CCC[C@@H](O)C[C@@H](O)C[C@H](O)CCC[C@@H](O)CCC[C@@H]2C[C@H](CCCCC1)OC(C)(C)O2
Plasmodium falciparum, HB3
  IC50: 2.3 µM

## C/C1=C/C(=O)O[C@H](C(C)(C)C)CCC[C@H](O)CCC[C@H](O)CCC[C@H](O)CCC[C@@H]2C[C@H](C[C@H](O)CCC[C@@H](O)CCC[C@@H]3C[C@H](CCCCC1)OC(C)(C)O3)OC(C)(C)O2
Plasmodium falciparum, HB3
  IC50: 9.7 µM

## C/C1=C/C(=O)O[C@H](C(C)(C)C)CCC[C@H](O)CCC[C@H](O)CCC[C@H](O)CCC[C@@H]2C[C@H](C[C@H](O)CCC[C@@H](O)CCC[C@@H](O)C[C@@H](O)CCCCC1)OC(C)(C)O2
Plasmodium falciparum, HB3
  IC50: 20 µM

## C/C1=C/C(=O)O[C@H](CCC[C@@H](O)CCC[C@@H](O)CCC[C@@H](O)CCC[C@H](O)C(C)(C)C)C[C@@H](O)C[C@H](O)CCC[C@@H](O)CCC[C@@H](O)C[C@@H](O)CCCCC1
Plasmodium falciparum, HB3
  IC50: 5.7 µM

## C/C1=C/C(=O)O[C@H](C(C)(C)C)CCC[C@H](O)CCC[C@H](O)CCC[C@H](O)CCC[C@@H](O)C[C@@H](O)C[C@H](O)CCC[C@@H](O)CCC[C@@H](O)C[C@@H](O)CCCCC1 [listing 2 of 2 here]
  IC50: 1.4 µM
